The record followed here is patent publication US20030188756A1, “Treatment of inflammatory bowel disease with vitamin d compounds” (priority 2002, published 2003).

What all share (format): in vivo
The test system of data set [1] is IL-10 KO mice. The data set is described as follows: 1,25(OH)2D3 supplementation (0.005 μg/d, 4 weeks) of vitamin D deficient IL-10 KO mice, IBD symptoms. An excerpt: (§1) MICE. Age and sex matched C57BL/6 IL-10 KO, and wildtype (WT) mice were produced in the Pennsylvania State University breeding colony; the breeding pairs were obtained from Jackson Laboratory (Bar Harbor, Me.). The animal facilities at the Pennsylvania State University are specific pathogen free and therefore breeding IL-10 KO mice was successful. All of the procedures described were reviewed and approved by the Pennsylvania State University Institutional Animal Care and Use Committee on Jan. 25, 1999, IACUC# number: 98118-A0.
(§2) DIETS. From a single pool of breeding females fed commercial mouse diet (#5105 Ralston Purina Co.), females in the second week of gestation were selected and randomly distributed into two groups. Starting pregnant dams on vitamin D deficient diet ensured that by 5 weeks of age the weanlings were vitamin D deficient (Cantorna et al. 1996). All mice were fed synthetic diets made in the laboratory (Yang et al. 1993; modification of Smith et al. 1987). The mice were vitamin D deficient, vitamin D sufficient or 1,25-dihydroxycholecalciferol supplemented. Mice were housed under yellow light to prevent the synthesis of vitamin D in skin. All of the mice were vitamin D deficient until weaning.
(§3) The 3 week old vitamin D deficient mice were randomly assigned to various treatment groups as described below. […] Experimental diets were prepared fresh and replaced every 2-3 days during the experiment. To ensure that 1,25-dihydroxycholecalciferol (1,25(OH)2D3) treated mice ate all of the 1,25(OH)2D3 provided, food cups containing 8 g of diet were replaced every other day (completely eaten) for the duration of each experiment (Cantorna et al. 1996, Cantorna et al. 1998a). In order to monitor vitamin D toxicity, 1,25(OH)2D3 supplemented mice were observed daily for signs of hypercalcemia. Symptoms of hypercalcemia monitored daily included overall health and weight loss.
In the 2nd series of experiments 3 week old vitamin D deficient mice were split into 2 groups. One group of mice was maintained on the vitamin D deficient diet and the other group was supplemented with 0.005 μg/d 1,25(OH)2D3. The vitamin D deficient and 1,25(OH)2D3 supplemented mice were sacrificed 4 weeks later at […].
SERUM MEASUREMENTS. Mice were bled at 5 weeks of age and at the end of the experiments to measure hemoglobin, calcium, and red blood cell numbers. Serum was collected every 2 weeks and serum calcium measured (normal for mice is 2.00-2.75 mmol/L). Vitamin D deficiency was also monitored by serum calcium analysis (serum calcium less then 1.75 mmol/L). Calcium (587-A) and hemoglobin (525-A) colorometric kits were from Sigma Chemical Co. (St. Louis, Mo.). Red blood cells were counted using a hemocytometer.
IBD SEVERITY. Mortality associated with the development of diarrhea was recorded in IL-10 KO and WT mice. In addition the small intestines (SI) were removed and weighed. The jejunum of the […] KO mice is visibly inflamed and has been used by others to monitor symptoms of IBD in mice (Kuhns et al. 1993). The jejunum of the SI was saved in 100 g/L formalin in phosphate buffered saline solution and sent to the Penn State Diagnostic Laboratory for sectioning and staining with hematoxyalin and eosin. Four or more paraffin sections (4 microns) from each mouse were scored using the exact procedure described by Kuhns et. al (1993). The sections were scored blindly on a scale of 0 to 5 for inflammation. […]

Data set [2] deals with IL-10 KO mice. Kind of data set: Short term (2 weeks, 0.2 μg/d) 1,25(OH)2D3 treatment of IL-10 KO mice started at first IBD symptoms.
Text: as §1, §2, §3
In the 3rd experimental design 1,25(OH)2D3 treatment was started at the first signs of IBD symptoms (diarrhea, 7 weeks of age). Seven week old vitamin D deficient mice were split into 2 groups. One group was maintained vitamin D deficient and the other group was supplemented with 0.2 μg/d 1,25(OH)2D3. The mice were treated for 2 weeks and the 9 week old mice were sacrificed.
IBD SEVERITY. Mortality associated with the development of diarrhea was recorded in IL-10 KO and WT mice. In addition the small intestines (SI) were removed and weighed. The jejunum of the […] KO mice is visibly inflamed and has been used by others to monitor symptoms of IBD in mice (Kuhns et al. 1993). […] Four or more paraffin sections (4 microns) from each mouse were scored using the exact procedure described by Kuhns et. al (1993). The sections were scored blindly on a scale of 0 to 5 for inflammation. […]

For data set [3], the system named is WT mice. The data set is described as follows: 1,25(OH)2D3 supplementation (0.005 μg/d, 4 weeks) of vitamin D deficient WT mice. The settings on record: 0.005 μg/day 1,25(OH)2D3 for 4 weeks, mean ± SEM.
Text: as §1
DIETS. […]
(§4) The 3 week old vitamin D deficient mice were randomly assigned to various treatment groups as described below. […] Symptoms of hypercalcemia monitored daily included overall health and weight loss. […]
SERUM MEASUREMENTS. […] Serum was collected every 2 weeks and serum calcium measured (normal for mice is 2.00-2.75 mmol/L). Vitamin D deficiency was also monitored by serum calcium analysis (serum calcium less then 1.75 mmol/L). […] Red blood cells were counted using a hemocytometer.
(§5) IBD SEVERITY. Mortality associated with the development of diarrhea was recorded in IL-10 KO and WT mice. […] Four or more paraffin sections (4 microns) from each mouse were scored using the exact procedure described by Kuhns et. al (1993). The sections were scored blindly on a scale of 0 to 5 for inflammation. […]

The subject of data set [4] is IL-10 KO mice. Kind of data set: Food restriction experiment, IL-10 KO mice on cholecalciferol diet (+D restricted). The settings on record: mean ± SEM.
Text: as §1, §2
The 3 week old vitamin D deficient mice were randomly assigned to various treatment groups as described below. […] Experimental diets were prepared fresh and replaced every 2-3 days during the experiment. To ensure that 1,25-dihydroxycholecalciferol (1,25(OH)2D3) treated mice ate all of the 1,25(OH)2D3 provided, food cups containing 8 g of diet were replaced every other day (completely eaten) for the duration of each experiment (Cantorna et al. 1996, Cantorna et al. 1998a). […] Symptoms of hypercalcemia monitored daily included overall health and weight loss. […]
as §5

Data set [5] deals with IL-10 KO mice. Kind of data set: Mortality and growth of IL-10 KO mice fed cholecalciferol (vitamin D sufficient) from weaning.
Text: as §1
DIETS. From a single pool of breeding females fed commercial mouse diet (#5105 Ralston Purina Co.), females in the second week of gestation were selected and randomly distributed into two groups. Starting pregnant dams on vitamin D deficient diet ensured that by 5 weeks of age the weanlings were vitamin D deficient (Cantorna et al. 1996). […]
as §4, §5

[6] abbreviates: 1,25(OH)2D3 supplemented IL-10 KO and WT mice, data not shown.
The mark [7] stands for this setting: 0.2 μg/d 1,25(OH)2D3 for 2 weeks from 7 weeks of age, mean ± SEM.
[8] abbreviates: treatment for as little as 2 weeks.
Setting [9] is: 5.0 μg/d cholecalciferol for 4 weeks.

Take `C=C1/C(=C\C=C2/CCC[C@]3(C)[C@@H]([C@H](C)CCCC(C)(C)O)CC[C@@H]23)C[C@@H](O)C[C@@H]1O` [1,25(OH)2D3, 1,25-dihydroxycholecalciferol]: in data set [1] (setting [6]), the Erythrocyte numbers result is “normal and not different”; the Hemoglobin levels entry is “normal and not different”. Also, the “Weight” value in data set [1] (IL-10 KO mice, 0.005 μg/day 1,25(OH)2D3 for 4 weeks, 9 weeks of age, mean ± SEM) was 20.9 ± 0.8 g. Further, in data set [1] (IL-10 KO mice, 0.005 μg/day 1,25(OH)2D3 for 4 weeks, mean ± SEM), the “Serum Calcium” value is on record as 3.00 ± 0.30 mmol/L. In data set [1] (IL-10 KO mice, small intestine (jejunum) inflammation, scale 0 to 5, 0.005 μg/day for 4 weeks, mean ± SEM), the “Histology Score” value turned out to be 1.7 ± 0.4. Moreover, in data set [2] (setting [7]), the “Small Intestine g” value came to 1.08 ± 0.05 g and the “Small Intestine g/100 g body” value was 5.4 ± 0.3 g/100 g body. In addition, in data set [2] (setting [8]), the IBD symptoms result was “ameliorated IBD symptoms” and the “Inflammation in the small intestine” value was “reduced the inflammation”. In addition, in data set [3], the “Serum Calcium” value is on record as 2.72 ± 0.25 mmol/L.
As for `C=C1CC[C@H](O)C/C1=C/C=C1\CCC[C@]2(C)[C@@H]([C@H](C)CCCC(C)C)CC[C@@H]12` [cholecalciferol], in data set [4] (5.0 μg/d cholecalciferol for 4 weeks from 5 weeks of age), the “Weight” value was 16.1 ± 1.1 g. In addition, in data set [4] (setting [9]), the “Small Intestine g” value is 1.00 ± 0.02 g and the “Small Intestine g/100 g body” value worked out at 6.2 ± 0.3 g/100 g body. In addition, the Diarrhea and mortality entry in data set [5] (5.0 μg cholecalciferol/d from weaning (FIG. 1)) is reported as “did not develop diarrhea or die”. In data set [5] (5.0 μg cholecalciferol/d from weaning, compared to vitamin D deficient IL-10 KO mice (FIG. 2)), the “Growth (body weight curve)” value was “grew rapidly”.
